Results reported in paper PMC11367099 (Heliyon, 2024).

Key:
Experiment in all cases: Fluorescein-AMP
Format in all cases: biochemical
[1] = molecular target: PDE5A (Homo sapiens, UniProt O76074)
[2] = molecular target: PDE3A (Homo sapiens, UniProt Q14432)
[3] = molecular target: PDE8A1 (Homo sapiens, UniProt O60658)
[4] = molecular target: PDE10A2 (Homo sapiens, UniProt Q9Y233)
Sequence of PDE10A2 (Q9Y233 267-1055): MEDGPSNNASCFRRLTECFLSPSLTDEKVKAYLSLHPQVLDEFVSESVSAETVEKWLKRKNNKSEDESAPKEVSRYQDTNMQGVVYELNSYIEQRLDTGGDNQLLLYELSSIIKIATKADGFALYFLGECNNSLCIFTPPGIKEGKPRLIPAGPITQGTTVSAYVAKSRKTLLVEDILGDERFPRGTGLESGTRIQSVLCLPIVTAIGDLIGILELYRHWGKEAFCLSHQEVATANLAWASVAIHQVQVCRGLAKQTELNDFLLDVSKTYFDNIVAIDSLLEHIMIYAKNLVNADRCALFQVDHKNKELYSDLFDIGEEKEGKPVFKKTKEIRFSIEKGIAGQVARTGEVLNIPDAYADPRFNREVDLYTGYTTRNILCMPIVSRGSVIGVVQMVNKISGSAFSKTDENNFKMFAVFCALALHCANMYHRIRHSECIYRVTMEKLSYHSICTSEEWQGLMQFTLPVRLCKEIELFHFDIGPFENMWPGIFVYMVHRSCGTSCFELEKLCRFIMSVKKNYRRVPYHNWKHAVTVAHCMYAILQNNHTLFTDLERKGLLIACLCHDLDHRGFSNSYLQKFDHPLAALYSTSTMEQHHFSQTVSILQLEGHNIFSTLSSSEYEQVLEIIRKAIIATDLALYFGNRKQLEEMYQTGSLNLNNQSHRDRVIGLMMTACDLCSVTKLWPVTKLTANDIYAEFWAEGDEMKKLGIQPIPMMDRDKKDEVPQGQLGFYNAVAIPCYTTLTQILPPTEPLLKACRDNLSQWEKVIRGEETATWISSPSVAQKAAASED

Sequence of PDE3A (Q14432 whole entry): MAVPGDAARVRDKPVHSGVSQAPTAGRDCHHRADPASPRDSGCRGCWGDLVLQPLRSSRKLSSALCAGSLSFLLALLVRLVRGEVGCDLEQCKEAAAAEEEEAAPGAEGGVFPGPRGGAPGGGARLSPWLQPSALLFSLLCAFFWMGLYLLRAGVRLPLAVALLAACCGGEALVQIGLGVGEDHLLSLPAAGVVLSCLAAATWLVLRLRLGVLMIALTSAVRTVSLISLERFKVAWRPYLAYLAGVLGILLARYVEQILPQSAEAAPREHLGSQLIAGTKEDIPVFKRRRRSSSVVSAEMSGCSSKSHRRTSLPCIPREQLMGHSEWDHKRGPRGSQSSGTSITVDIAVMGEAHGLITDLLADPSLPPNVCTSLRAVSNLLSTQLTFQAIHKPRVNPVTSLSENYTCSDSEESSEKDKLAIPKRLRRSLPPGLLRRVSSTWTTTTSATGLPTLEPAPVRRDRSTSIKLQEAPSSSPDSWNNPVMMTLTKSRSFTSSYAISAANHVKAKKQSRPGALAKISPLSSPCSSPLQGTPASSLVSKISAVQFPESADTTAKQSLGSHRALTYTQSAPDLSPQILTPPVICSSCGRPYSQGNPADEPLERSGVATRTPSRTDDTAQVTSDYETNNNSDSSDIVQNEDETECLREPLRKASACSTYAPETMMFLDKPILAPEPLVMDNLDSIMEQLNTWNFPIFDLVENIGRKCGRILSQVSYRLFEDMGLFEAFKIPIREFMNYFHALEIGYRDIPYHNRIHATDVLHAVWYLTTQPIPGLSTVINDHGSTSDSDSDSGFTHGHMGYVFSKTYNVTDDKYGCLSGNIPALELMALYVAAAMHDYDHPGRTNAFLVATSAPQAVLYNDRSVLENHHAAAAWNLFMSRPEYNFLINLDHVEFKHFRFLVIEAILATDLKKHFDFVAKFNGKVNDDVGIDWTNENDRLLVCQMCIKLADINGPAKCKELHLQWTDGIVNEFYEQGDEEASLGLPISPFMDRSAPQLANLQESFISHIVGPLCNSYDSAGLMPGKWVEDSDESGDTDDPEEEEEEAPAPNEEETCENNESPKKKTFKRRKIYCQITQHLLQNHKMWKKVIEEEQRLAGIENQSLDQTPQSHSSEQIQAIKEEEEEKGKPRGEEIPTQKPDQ
Sequence of PDE8A1 (O60658 whole entry): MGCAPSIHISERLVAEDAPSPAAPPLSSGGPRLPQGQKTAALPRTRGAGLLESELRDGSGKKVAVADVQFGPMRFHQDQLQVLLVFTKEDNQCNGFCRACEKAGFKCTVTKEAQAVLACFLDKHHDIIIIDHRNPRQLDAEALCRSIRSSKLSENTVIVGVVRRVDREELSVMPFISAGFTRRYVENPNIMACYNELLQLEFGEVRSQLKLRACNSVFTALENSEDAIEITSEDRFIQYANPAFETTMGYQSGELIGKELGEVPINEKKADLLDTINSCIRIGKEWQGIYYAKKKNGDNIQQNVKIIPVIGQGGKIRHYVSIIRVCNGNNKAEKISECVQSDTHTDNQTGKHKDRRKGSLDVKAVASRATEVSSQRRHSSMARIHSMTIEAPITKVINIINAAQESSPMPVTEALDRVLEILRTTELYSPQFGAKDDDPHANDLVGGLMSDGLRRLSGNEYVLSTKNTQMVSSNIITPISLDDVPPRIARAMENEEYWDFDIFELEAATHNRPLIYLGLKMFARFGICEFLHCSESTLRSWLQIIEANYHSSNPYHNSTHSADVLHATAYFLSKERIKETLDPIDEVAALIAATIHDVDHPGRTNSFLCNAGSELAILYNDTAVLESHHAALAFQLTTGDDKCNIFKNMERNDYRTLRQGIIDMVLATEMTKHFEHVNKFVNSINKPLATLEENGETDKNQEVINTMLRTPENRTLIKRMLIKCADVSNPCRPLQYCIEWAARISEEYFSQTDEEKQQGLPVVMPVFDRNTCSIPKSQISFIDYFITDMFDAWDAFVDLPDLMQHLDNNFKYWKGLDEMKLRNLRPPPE

SMILES: COc1cc(-c2cc(=O)c3c(O)c(OC)c(O)c(OC)c3o2)ccc1O [Sudachitin]
- IC50 [1]: 6.54 µM
- IC50 [2]: 5.19 µM
- IC50 [3]: 26.3 µM
- IC50 [4]: 9.99 µM
